Literature values as cited in the CATMoS acute toxicity set (Mansouri et al. 2021).
Several values for one entry are separate records, joined by “and”; a condition that tells them apart may be missing. Identical values can stand only once.

assay: rat acute oral toxicity; settings: in vivo

SMILES	LD50
O=C(O)c1ccccc1Nc1c(Cl)cc(Cl)c2ccccc12	8500 mg/kg
Nc1ncnc2[nH]cnc12	227 mg/kg
CNCCC#N	2260 mg/kg
NC(=S)c1c(Cl)cccc1Cl	757 mg/kg
CCOC(=O)CSP(=O)(OC)OC	385 mg/kg
O=C1CN(N=Cc2ccc([N+](=O)[O-])o2)C(=O)N1	604 mg/kg
CCCCCCC#COC(=O)OCC	2850 mg/kg
Cc1ccc(NN)cc1	262 mg/kg
CC(C)(OOC(C)(C)c1ccccc1)c1ccccc1	4100 mg/kg
OC1(c2ccc(F)cc2)c2ccccc2C2=NCCN21 (stereo not given)	200 mg/kg
CCN(CC)CCN1C(=O)NC(c2ccccc2)(c2ccccc2)C1=O	1300 mg/kg
CCN(CC)CCNc1ccc(CO)c2sc3ccccc3c(=O)c12	980 mg/kg
O=c1oc2cc(Cl)ccc2n1CO	2800 mg/kg
CN(C)CCCCCNc1c2ccccc2nc2cccc([N+](=O)[O-])c12	63.3 mg/kg
O=[N+]([O-])c1cc(C(F)(F)F)ccc1Cl	1080 mg/kg
C[N+]1(C)[C@@H]2CC[C@H]1C[C@@H](OC(=O)C(O)c1ccccc1)C2 (stereo not given in full)	1200 mg/kg
O=C1C=CC(=O)N1c1ccccc1Cl	520 mg/kg
O=S(=O)(F)C1CCC(S(=O)(=O)F)C1 (stereo not given)	7.9 mg/kg
CCN(CC)C(=O)c1nnn(-c2ccccc2)c1C	500 mg/kg
CN(C(O)=NC(C)(C)c1ccccc1)c1ccccc1	6130 mg/kg
CC[Se][Se]CC	90 mg/kg
CCN(CC)CCSC(=O)C(c1ccccc1)c1ccccc1	2720 mg/kg
CCS(=O)(=O)Oc1ccc2c(c1)C(C)(C)CO2	2030 mg/kg
CCCCC(CC)CNc1ccccc1 (stereo not given)	2410 mg/kg
CCOP(=S)(OC)SCN1C(=O)c2ccccc2C1=O (stereo not given)	50 mg/kg

SMILES	LD50
CC1(C)CNC(=NN=C(/C=C/c2ccc(C(F)(F)F)cc2)/C=C/c2ccc(C(F)(F)F)cc2)NC1	1130 mg/kg
CC(N)CC(C)(C)N (stereo not given)	431 mg/kg
Cc1ccc(Cl)c(Nc2ccccc2C(=O)O)c1Cl	100 mg/kg
CC(C)CC(CCN(C(C)C)C(C)C)(C(N)=O)c1ccccn1 (stereo not given)	1100 mg/kg
CC(C)(C)c1ccc(CCC=O)cc1	2700 mg/kg
N#Cc1cc(Cl)c2nc(C(F)(F)F)[nH]c2c1	2.4 mg/kg
CC(C)=CCCC(C)=CCCC(=CCCC(C)=CCO)CO	10900 mg/kg
Cc1c(Br)cc2[nH]c(C(F)(F)F)nc2c1[N+](=O)[O-]	83 mg/kg
CNC(=O)Oc1cc(C)c(C)c(C)c1	178 mg/kg
C=CP(=O)(OCCCl)OCCCl	990 mg/kg
COc1ccc(Nc2ccc(OC)cc2)cc1	2470 mg/kg
BrC(Br)(Br)c1ccc2ccccc2n1	6770 mg/kg
COP(=O)(OC)OC(=C(Cl)Br)c1ccc(Cl)cc1Cl	107 mg/kg
ClCc1cccnc1	316 mg/kg
CC(=O)Oc1ccc(-c2ccc(F)cc2)cc1C(=O)O	185 mg/kg
Cc1cc(N=Nc2ccc(S(=O)(=O)O)cc2)c(N)c(N=Nc2ccc(-c3ccc(N=Nc4cc(C)c(O)c(C(=O)O)c4)cc3)cc2)c1N	9960 mg/kg
CCCN(C)C	500 mg/kg
CC(=O)CC(C)(C)N(C)N=O	2100 mg/kg
Cc1nc(C)c(C(=O)Nc2ccccc2)s1	3930 mg/kg
O=C1C(CCC2CC2)C(=O)N(c2ccccc2)N1c1ccccc1	400 mg/kg
COc1ccc2ccc(=O)oc2c1CC=C(C)C	2900 mg/kg
COc1ccc(OCCCN(C)CCOc2ccc3c(c2)OCO3)c(C2Sc3ccccc3N(C)C2=O)c1 (stereo not given)	206 mg/kg
CN1C2CCC(C)(C)C1CC(OC(=O)C(O)(c1cccs1)c1cccs1)C2 (stereo not given)	1180 mg/kg
O=C(CF)NCc1ccc(Br)cc1	410 mg/kg
O=C1NC(CCCl)Oc2ccccc21 (stereo not given)	10000 mg/kg

SMILES	LD50
CSC(C)(C)C=NOC(=O)N(C)SN(C)Cc1ccccc1	9.4 mg/kg
CN(C)CCn1c2ccccc2c(=O)c2c([N+](=O)[O-])cccc21	41 mg/kg
COc1ccc2cc(C(C)C(=O)OCCO)ccc2c1 (stereo not given)	1720 mg/kg
CCS(=O)(=O)Cl	360 mg/kg
COP(=S)(OC)SC	15 mg/kg
Cc1cc(=O)nc(SCc2ccccc2N(C)C)[nH]1	2400 mg/kg
Cc1cccn2c(=O)c(-c3nnn[nH]3)cnc12	687 mg/kg
Cc1ccc(N=NN(C)C)cc1	395 mg/kg
CN1CCN(C[C@H]2C(=O)Nc3ccccc3S[C@H]2c2ccccc2)CC1	830 mg/kg
CCCCOCC(O)COc1ccccc1 (stereo not given)	2370 mg/kg
CN1CCN(c2cc3c(nn2)Oc2ccccc2N3C)CC1	1000 mg/kg
COc1ccc(N)cc1N	460 mg/kg
S=c1[nH]c2ccccc2s1	631 mg/kg
NCc1ccc(S(N)(=O)=O)cc1	9210 mg/kg
CC(C)Oc1cccc(C2CC(=O)NC2=O)c1 (stereo not given)	2400 mg/kg
O=[N+]([O-])c1cc2nc(C(F)(F)F)[nH]c2cc1[N+](=O)[O-]	15.2 mg/kg
CN1C(C(=O)Nc2nccs2)=C(O)c2ccccc2S1(=O)=O	136 mg/kg
COP(=O)(OC)Oc1cc(C)n(C)c(=O)c1	2.91 mg/kg
CCCCON=O	83 mg/kg
O=C1C2C3C=C(C(O)(c4ccccc4)c4ccccn4)C(C3=C(c3ccccc3)c3ccccn3)C2C(=O)N1Cc1ccccn1 (stereo not given)	5.2 mg/kg
CCCCOCCC(=O)O	5190 mg/kg
CC(C)CC(=O)CC1(C)CCC(c2ccoc2)O1 (stereo not given)	350 mg/kg
Nc1ccc2cc(S(=O)(=O)O)cc(O)c2c1N=Nc1ccc(-c2ccc(N=Nc3ccc(O)c(C(=O)O)c3)cc2)cc1	22400 mg/kg
C=Cc1ccc(C=O)o1	2080 mg/kg
CC(=O)c1cccc([N+](=O)[O-])c1	3250 mg/kg

SMILES	LD50
CC(=O)c1ccccc1Cl	1820 mg/kg
CCCCOCCOCCOCCO	5300 mg/kg
Nc1ccc(O)c2c1C(=O)c1c(O)cc(-c3ccc(O)cc3)c(N)c1C2=O	6380 mg/kg
ClCCN1CCCC(C(c2ccccc2)c2ccccc2)C1 (stereo not given)	970 mg/kg
Clc1ccc(Sc2cc(Cl)c(Cl)cc2Cl)cc1	3960 mg/kg
ClCc1ccccc1CCl	2260 mg/kg
CCCCNC(=O)c1ccccc1	5140 mg/kg
CCn1c(=O)c2ccccc2n(-c2cccc(C(F)(F)F)c2)c1=O	1500 mg/kg
COC(=O)C(C)c1ccc(-c2ccsc2)cc1 (stereo not given)	2330 mg/kg
CC(C=O)=Cc1ccccc1	2050 mg/kg
N#Cc1ccc([N+](=O)[O-])cc1C#N	850 mg/kg
C[C@H]1O[C@@H](n2cc(F)c(=O)[nH]c2=O)[C@H](O)[C@@H]1O	3390 mg/kg
CCC(C)NCC(O)c1ccc(N)cc1 (stereo not given)	650 mg/kg
CN(C)C(=S)SSC(=S)NCCNC(=S)SSC(=S)N(C)C	3000 mg/kg
C=CC=CC=CCCCCC	7560 mg/kg
C=CCN(C1=NCCN1)c1c(Cl)cccc1Cl	500 mg/kg and 233 mg/kg
O=CC(Br)(Br)Br	100 mg/kg
CCCC/C=C/C=O	1300 mg/kg
C=CCc1c(O)c(CN2CCN(CCO)CC2)cc2c(C)cc(=O)oc12	3160 mg/kg
Cc1c(Nc2ncnc3ccccc23)c(=O)n(C)n1-c1ccccc1	369 mg/kg
CCOc1ccc([N+](=O)[O-])cc1CNCCCl	25 mg/kg
CCCCCCCCCCCC[N+](C)(C)CC(=O)[O-]	71 mg/kg
Nc1ccc(S(=O)(=O)O)c2cccc(O)c12	6210 mg/kg
O=C(O)Cc1sc(-c2ccccc2)nc1-c1ccc(Cl)cc1	409 mg/kg
O=C(COc1ccc(Cc2ccc(Cl)cc2)cc1)OCc1cccnc1	2700 mg/kg

SMILES	LD50
CCN(CC)CCC(CC=C(C)C)(C(N)=O)c1cccc2ccccc12 (stereo not given)	71 mg/kg
CC(C)(N)Cc1ccccc1Cl	332 mg/kg
O=C(O)c1cc(S(=O)(=O)O)ccc1O	1850 mg/kg
C=S	365 mg/kg
CCc1c(C)[nH]c2c1C(=O)C(CN1CCC3(CC1)OCCO3)CC2 (stereo not given)	240 mg/kg
CSC(C)=NOC(=O)N(C)SSN(C)C(=O)ON=C(C)SC	190 mg/kg
CC(C)OC(=O)OOC(=O)OC(C)C	2140 mg/kg
Cc1cc(C)cc(O)c1	608 mg/kg
CC(C)(C)c1ccc2nc(C(F)(F)F)[nH]c2c1	35 mg/kg
CCCCNC	420 mg/kg
CCc1cc(S(=O)(=O)O)c2cc(C(C)C)cccc1-2	1100 mg/kg
CC(C=O)Cc1ccc(C(C)C)cc1 (stereo not given)	3810 mg/kg
Clc1ccc(COC(Cn2ccnc2)c2ccc(Cl)cc2Cl)c(Cl)c1 (stereo not given)	920 mg/kg and 550 mg/kg
COc1ccc(N)c([N+](=O)[O-])c1	14100 mg/kg
Clc1cc2oc3c(Cl)c(Cl)c(Cl)cc3c2cc1Cl	0.916 mg/kg
CCOc1cc(C=O)ccc1O	1590 mg/kg
O=NN(CCF)C(=O)NC1CCCCC1	18.5 mg/kg
CN(C)CCOC(C)(c1ccccc1)c1ccc(Cl)cc1 (stereo not given)	1000 mg/kg
O=[N+]([O-])c1ccc(Oc2c(F)cc(Cl)cc2Cl)cc1	2890 mg/kg
O=C(CI)NC(=O)CI	650 mg/kg
COc1cc(C#N)ccc1OP(=S)(OC)OC	2710 mg/kg
CCC(C)c1ccccc1OC(=O)NC (stereo not given)	350 mg/kg
Cc1cccc(N2CCN(CC=Cc3ccc4c(c3)CCC(=O)N4)CC2)c1	500 mg/kg
N=C(N)NCCC[C@H](N)C(=O)O	12000 mg/kg
CN1[C@@H]2CC[C@H]1C[C@@H](OC(c1ccccc1)c1ccccc1)C2	940 mg/kg

SMILES	LD50
COc1ccc2c(c1)c(CC(=O)Oc1cccc(C)c1)c(C)n2C(=O)c1ccc(Cl)cc1	98 mg/kg
CC(=O)c1ccc2oc3ncccc3c(=O)c2c1	1680 mg/kg
c1ccc(C2(N3CCCCC3)CCCCC2)cc1	135 mg/kg
CN(C)P(=O)(N(C)C)N(C)C	2650 mg/kg
Cc1ccc2c(c1)c(-c1ccccc1)cn2N(CCN(C)C)CCN(C)C	980 mg/kg
O=C(O)[C@@H]1CC[C@H](C(=O)O)C1	3250 mg/kg
O=[n+]1c2ccccc2n([O-])c2ccc3ccccc3c21	4620 mg/kg
C=CC[C@@H]1C=C(C)C[C@H](C)C[C@H](OC)[C@H]2O[C@@](O)(C(=O)C(=O)N3CCCC[C@H]3C(=O)O[C@H](/C(C)=C/[C@@H]3CC[C@@H](O)[C@H](OC)C3)[C@H](C)[C@@H](O)CC1=O)[C@H](C)C[C@@H]2OC	134 mg/kg
C#CCC1=C(C)C(OC(=O)C2C(C=C(C)C)C2(C)C)CC1=O (stereo not given)	460 mg/kg
O=C1OCCO1	10000 mg/kg
c1ccc(CNc2ncnc3c2NCN3)cc1	2100 mg/kg
NCCc1ccc(O)c(O)c1	2860 mg/kg
N#CCCN1C(=O)C(O)N=C(c2ccccc2F)c2cc(Cl)ccc21 (stereo not given)	3500 mg/kg
CC1Oc2ccccc2CC1N(C)C (stereo not given)	812 mg/kg
CC(NC(C)(C)C)C(=O)c1cccc(Cl)c1 (stereo not given)	482 mg/kg and 600 mg/kg
CCOC(=O)C=CN(C)C	4500 mg/kg
NS(=O)(=O)c1cc(Cl)c(Cl)c(S(N)(=O)=O)c1	10100 mg/kg
N#CC=Cc1ccccc1	4150 mg/kg
CC(C)N(C(=O)SCC(Cl)=CCl)C(C)C	395 mg/kg
O=C(O)CCCOc1ccc(Cl)cc1Cl	700 mg/kg
